From publication PMC3760505 (Bioorganic & medicinal chemistry letters, 2009)

Experiments:
in vitro = conditions: human, Jurkat cells
[1] = test system: T. brucei brucei parasites
rhodesain = rhodesain (Trypanosoma brucei rhodesiense, UniProt Q95PM0); test: biochemical; conditions: read-out: rhodesain inhibition kinetics kinact/Ki
[2] = test system: T. brucei brucei parasites; test: microbe, parasite or virus in culture; conditions: Trypanosoma brucei, read-out: parasite growth inhibition GI50 T.b.b parasites
Jurkat cells = conditions: at 10 uM
cruzain = cruzain (Trypanosoma cruzi, UniProt P25779); conditions: initial survey of non-peptidic P2/P3 moieties
Chain of cruzain (P25779 123-467): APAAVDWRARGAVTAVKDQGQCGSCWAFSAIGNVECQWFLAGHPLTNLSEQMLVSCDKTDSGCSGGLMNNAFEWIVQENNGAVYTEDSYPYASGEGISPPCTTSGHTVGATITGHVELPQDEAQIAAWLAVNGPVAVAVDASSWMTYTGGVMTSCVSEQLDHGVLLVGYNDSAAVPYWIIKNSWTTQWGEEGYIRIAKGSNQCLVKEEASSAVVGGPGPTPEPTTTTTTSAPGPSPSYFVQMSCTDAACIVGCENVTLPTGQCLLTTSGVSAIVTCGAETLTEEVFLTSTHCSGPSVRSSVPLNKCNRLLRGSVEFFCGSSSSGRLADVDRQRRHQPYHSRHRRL

Chain of rhodesain (Q95PM0 1-450): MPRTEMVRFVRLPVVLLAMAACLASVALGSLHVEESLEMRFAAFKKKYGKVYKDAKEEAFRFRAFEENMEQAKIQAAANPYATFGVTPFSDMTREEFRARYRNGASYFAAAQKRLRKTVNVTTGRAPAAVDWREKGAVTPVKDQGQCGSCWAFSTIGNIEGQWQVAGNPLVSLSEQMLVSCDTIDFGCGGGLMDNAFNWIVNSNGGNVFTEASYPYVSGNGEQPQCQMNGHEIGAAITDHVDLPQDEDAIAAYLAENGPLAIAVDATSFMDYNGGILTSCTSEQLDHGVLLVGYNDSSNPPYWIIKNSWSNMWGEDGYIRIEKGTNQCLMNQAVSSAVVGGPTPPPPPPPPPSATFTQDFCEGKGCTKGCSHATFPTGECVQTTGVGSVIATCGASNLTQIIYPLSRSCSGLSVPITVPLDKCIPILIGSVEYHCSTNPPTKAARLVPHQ

SMILES | IC50 (in vitro) [µM] | effect against cultured parasites (in words) [1] | kinact/KI (rhodesain) [M⁻¹ s⁻¹] | other results
Cc1nc(-c2ccccc2)sc1C(=O)N[C@H](/C=C/S(=O)(=O)c1ccccc1)CCc1ccccc1 [3a] | > 100 | ineffective against cultured parasites | 84000 | –
Cc1nc(-c2cccnc2)sc1C(=O)N[C@H](/C=C/S(=O)(=O)c1ccccc1)CCc1ccccc1 [3b] | – | antiparasitic effects at low micromolar concentration | – | –
Cc1nc(-c2cnccn2)sc1C(=O)N[C@H](/C=C/S(=O)(=O)c1ccccc1)CCc1ccccc1 [3c] | > 100 | antiparasitic effects at low micromolar concentration | 25200 | –
O=C(N[C@H](/C=C/S(=O)(=O)c1ccccc1)CCc1ccccc1)c1cc(-c2ccccc2)no1 [4a] | > 100 | ineffective against cultured parasites | 3610 | –
O=C(N[C@H](/C=C/S(=O)(=O)c1ccccc1)CCc1ccccc1)c1cc(-c2ccncc2)no1 [4b] | > 100 | antiparasitic effects at low micromolar concentration | 8590 | –
O=C(N[C@H](/C=C/S(=O)(=O)c1ccccc1)CCc1ccccc1)c1cc(-c2cccnc2)no1 [4c] | > 100 | – | – | –
O=C(N[C@H](/C=C/S(=O)(=O)c1ccccc1)CCc1ccccc1)c1cc(-c2ccccn2)no1 [4d] | > 100 | antiparasitic effects at low micromolar concentration | 7720 | –
O=C(N[C@H](/C=C/S(=O)(=O)c1ccccc1)CCc1ccccc1)[C@@H]1CCCC[C@H]1C(=O)c1ccc(Cl)cc1 [7a] | > 100 | – | 9750 | GI50 [2]: 12 µM
O=C(N[C@H](/C=C/S(=O)(=O)c1ccccc1)CCc1ccccc1)[C@H]1CCCC[C@@H]1C(=O)c1ccc(Cl)cc1 [7b] | – | – | 2160 | –
CN1CCN(C(=O)N[C@@H](Cc2ccccc2)C(=O)N[C@H](/C=C/S(=O)(=O)c2ccccc2)CCc2ccccc2)CC1 [K-777 (1)] | – | – | – | cytotoxicity Jurkat cells, percent at single concentration (Jurkat cells): 3% at 10 uM
Cc1onc(-c2ccc(F)cc2)c1C(=O)N[C@H](/C=C/S(=O)(=O)c1ccccc1)CCc1ccccc1 [compound 5] | – | – | – | enzyme activity (in words) (cruzain): ineffective
CC(C)(C)c1cc(C(=O)N[C@H](/C=C/S(=O)(=O)c2ccccc2)CCc2ccccc2)n(Cc2ccccc2)n1 [compound 6] | – | – | – | enzyme activity (in words) (cruzain): ineffective
